The IC50 is the point on the concentration scale where inhibition reaches its midpoint.

From patent publication US10344060B2 (priority 2013, dated 2019) come the findings set out here.

For this test, the target named is hNav1.7 (Homo sapiens, UniProt Q15858). Put plainly: cell-based. The test is classed as cell-based. The settings on record: for IC50: Table 12, PatchXpress, tonic block, read-out: PX hNav1.7 Tonic IC50.
The mark [1] stands for this setting: ratio of PX tonic IC50 values, Table 11.

Sequence of hNav1.7 (Q15858 whole entry): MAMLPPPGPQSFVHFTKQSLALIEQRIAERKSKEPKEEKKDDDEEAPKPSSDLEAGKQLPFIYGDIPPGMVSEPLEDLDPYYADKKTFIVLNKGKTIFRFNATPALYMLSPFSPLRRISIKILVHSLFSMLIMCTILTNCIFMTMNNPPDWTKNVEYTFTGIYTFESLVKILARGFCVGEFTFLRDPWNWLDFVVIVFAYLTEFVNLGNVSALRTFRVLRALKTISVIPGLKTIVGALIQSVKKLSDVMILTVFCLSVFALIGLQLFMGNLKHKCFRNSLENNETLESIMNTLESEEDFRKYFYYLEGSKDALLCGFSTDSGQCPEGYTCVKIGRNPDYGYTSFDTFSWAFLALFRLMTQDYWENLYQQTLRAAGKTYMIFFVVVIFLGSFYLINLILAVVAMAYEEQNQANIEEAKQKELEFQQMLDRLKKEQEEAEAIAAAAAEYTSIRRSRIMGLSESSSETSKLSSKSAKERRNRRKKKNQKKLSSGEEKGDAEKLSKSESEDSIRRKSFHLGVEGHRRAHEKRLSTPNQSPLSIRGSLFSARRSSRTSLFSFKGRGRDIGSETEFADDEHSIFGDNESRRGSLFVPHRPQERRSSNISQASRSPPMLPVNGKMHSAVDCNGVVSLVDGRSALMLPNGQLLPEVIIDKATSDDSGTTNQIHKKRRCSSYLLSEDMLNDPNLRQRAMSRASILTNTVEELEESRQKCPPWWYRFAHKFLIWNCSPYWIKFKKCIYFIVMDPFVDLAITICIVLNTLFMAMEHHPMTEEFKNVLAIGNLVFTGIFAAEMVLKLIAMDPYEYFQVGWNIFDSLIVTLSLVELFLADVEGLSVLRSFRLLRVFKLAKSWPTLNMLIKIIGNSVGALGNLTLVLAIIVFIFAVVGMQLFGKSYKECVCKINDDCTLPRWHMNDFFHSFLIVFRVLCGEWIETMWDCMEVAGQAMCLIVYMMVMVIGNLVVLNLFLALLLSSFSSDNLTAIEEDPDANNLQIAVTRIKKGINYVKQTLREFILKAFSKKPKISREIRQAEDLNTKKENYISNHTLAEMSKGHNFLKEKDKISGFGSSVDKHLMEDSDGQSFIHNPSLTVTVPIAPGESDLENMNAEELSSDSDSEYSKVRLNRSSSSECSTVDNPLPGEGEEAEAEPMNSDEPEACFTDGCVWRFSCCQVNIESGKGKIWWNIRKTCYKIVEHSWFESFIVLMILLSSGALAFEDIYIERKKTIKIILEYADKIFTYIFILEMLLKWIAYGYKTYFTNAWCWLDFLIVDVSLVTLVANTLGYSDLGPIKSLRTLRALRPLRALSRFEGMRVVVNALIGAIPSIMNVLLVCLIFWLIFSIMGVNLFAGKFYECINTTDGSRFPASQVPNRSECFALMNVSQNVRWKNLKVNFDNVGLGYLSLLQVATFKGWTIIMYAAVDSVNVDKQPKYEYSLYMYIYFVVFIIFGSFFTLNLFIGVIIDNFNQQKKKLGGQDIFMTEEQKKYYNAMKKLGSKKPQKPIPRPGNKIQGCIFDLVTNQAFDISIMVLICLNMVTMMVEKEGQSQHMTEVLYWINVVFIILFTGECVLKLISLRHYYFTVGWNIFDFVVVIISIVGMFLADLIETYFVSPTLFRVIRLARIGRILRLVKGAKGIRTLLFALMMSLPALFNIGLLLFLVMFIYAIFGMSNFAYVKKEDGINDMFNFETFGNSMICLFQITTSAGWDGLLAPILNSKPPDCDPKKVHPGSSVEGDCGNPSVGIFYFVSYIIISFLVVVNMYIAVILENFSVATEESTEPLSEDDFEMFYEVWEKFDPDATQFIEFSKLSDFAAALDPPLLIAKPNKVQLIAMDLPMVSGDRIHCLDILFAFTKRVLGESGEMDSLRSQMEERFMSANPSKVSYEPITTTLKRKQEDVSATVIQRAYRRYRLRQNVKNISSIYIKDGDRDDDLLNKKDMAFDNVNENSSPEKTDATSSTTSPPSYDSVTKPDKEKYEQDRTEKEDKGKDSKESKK

Turning to `CCCC[C@@H]1NC(=O)[C@H](Cc2c[nH]c3ccccc23)NC(=O)[C@H](CCCCN)NC(=O)[C@H](CCC(N)=O)NC(=O)[C@@H](NC(=O)[C@H](Cc2ccc(O)cc2)NC(=O)[C@@H](N)CC#N)CSSC[C@@H]2NC(=O)[C@@H]3CSSC[C@@H](C(=O)N[C@@H](CCCNC(=N)N)C(=O)N[C@@H](CCCCN)C(=O)N[C@H](C(=O)N[C@@H](Cc4c[nH]c5ccccc45)C(N)=O)[C@@H](C)CC)NC(=O)[C@H](Cc4c[nH]c5ccccc45)NC(=O)[C@H](CC(C)C)NC(=O)[C@H](CCCCN)NC(=O)[C@H](CSSC[C@H](NC(=O)[C@H]([C@@H](C)O)NC(=O)[C@H](Cc4c[nH]c5ccccc45)NC1=O)C(=O)N[C@@H](CC(=O)O)C(=O)N[C@@H](CO)C(=O)N[C@@H](CCCCN)C(=O)N[C@@H](CCCNC(=N)N)C(=O)N[C@@H](C)C(=O)N3)NC(=O)[C@H](CCCCNC(=O)CCOCCOCCOCCOCCOCCOCCOCCOCCOCCOCCOCCOCCN)NC(=O)[C@H](CC(C)C)NC(=O)CNC(=O)[C@H](CCC(=O)O)NC2=O` [compound 476], under setting [1], the Nav1.4/Nav1.7 is 13 and the Nav1.5/Nav1.7 is 71.
With `CCCC[C@@H]1NC(=O)[C@H](Cc2c[nH]c3ccccc23)NC(=O)[C@H](CCCCN)NC(=O)[C@H](CCC(N)=O)NC(=O)[C@@H](NC(=O)[C@H](Cc2ccccc2)NC(=O)[C@@H](N)CC#N)CSSC[C@@H]2NC(=O)[C@@H]3CSSC[C@@H](C(=O)N[C@@H](CCCNC(=N)N)C(=O)N[C@@H](CCCCN)C(=O)N[C@@H](CCC(=O)O)C(=O)N[C@H](C(N)=O)[C@@H](C)CC)NC(=O)[C@H](Cc4c[nH]c5ccccc45)NC(=O)[C@H](CC(C)C)NC(=O)[C@H](CCCCN)NC(=O)[C@H](CSSC[C@H](NC(=O)[C@H]([C@@H](C)O)NC(=O)[C@H](Cc4c[nH]c5ccccc45)NC1=O)C(=O)N[C@@H](CC(=O)O)C(=O)N[C@@H](CO)C(=O)N[C@@H](CCCCN)C(=O)N[C@@H](CCCNC(=N)N)C(=O)N[C@@H](C)C(=O)N3)NC(=O)[C@H](CCCNC(=N)N)NC(=O)[C@H](CC(C)C)NC(=O)CNC(=O)[C@H](CCCCNC(=O)CCOCCOCCOCCOCCOCCOCCOCCOCCOCCOCCOCCOCCN)NC2=O` [compound 551], under setting [1], the Nav1.4/Nav1.7 was 13.
Still for that read-out and setting: with `CCCC[C@@H]1NC(=O)[C@H](CO)NC(=O)[C@H](CC(=O)O)NC(=O)[C@@H]2CSSC[C@@H]3NC(=O)[C@H](CCCNC(=N)N)NC(=O)[C@H](CC(C)C)NC(=O)CNC(=O)[C@H](CCCCNC(=O)CCOCCOCCOCCOCCOCCOCCOCCOCCOCCOCCOCCOCCN)NC(=O)[C@H](CSSC[C@H](NC(=O)[C@H](Cc4ccc(O)cc4)NC(=O)[C@@H](N)CC#N)C(=O)N[C@@H](CCC(N)=O)C(=O)N[C@@H](CCCCN)C(=O)N[C@@H](Cc4c[nH]c5ccccc45)C(=O)N[C@@H](CCCC)C(=O)N[C@@H](Cc4c[nH]c5ccccc45)C(=O)N[C@@H]([C@@H](C)O)C(=O)N2)NC(=O)[C@H](CSSC[C@@H](C(=O)N[C@@H](CCCNC(=N)N)C(=O)N[C@@H](CCCCN)C(=O)N[C@@H](CCC(=O)O)C(=O)N[C@H](C(N)=O)[C@@H](C)CC)NC(=O)[C@H](Cc2c[nH]c4ccccc24)NC(=O)[C@H](CC(C)C)NC(=O)[C@H](CCCCN)NC3=O)NC(=O)[C@H](C)NC(=O)[C@H](CCCNC(=N)N)NC1=O` [compound 561] the figure was 33.
In the case of `CCCC[C@@H]1NC(=O)[C@H](Cc2c[nH]c3ccccc23)NC(=O)[C@H](CCCCN)NC(=O)[C@H](CCC(N)=O)NC(=O)[C@@H](NC(=O)[C@H](CCCCNC(=O)CCOCCOCCOCCOCCOCCOCCOCCOCCOCCOCCOCCOCCN)NC(=O)[C@@H](N)CC#N)CSSC[C@@H]2NC(=O)[C@@H]3CSSC[C@@H](C(=O)N[C@@H](CCCNC(=N)N)C(=O)N[C@@H](CCCCN)C(=O)N[C@@H](CCC(=O)O)C(=O)N[C@H](C(N)=O)[C@@H](C)CC)NC(=O)[C@H](Cc4c[nH]c5ccccc45)NC(=O)[C@H](CC(C)C)NC(=O)[C@H](CCCCN)NC(=O)[C@H](CSSC[C@H](NC(=O)[C@H]([C@@H](C)O)NC(=O)[C@H](Cc4c[nH]c5ccccc45)NC1=O)C(=O)N[C@@H](CC(=O)O)C(=O)N[C@@H](CO)C(=O)N[C@@H](CCCCN)C(=O)N[C@@H](CCCNC(=N)N)C(=O)N[C@@H](C)C(=O)N3)NC(=O)[C@H](CCCNC(=N)N)NC(=O)[C@H](CC(C)C)NC(=O)CNC(=O)[C@H](CCC(=O)O)NC2=O` [compound 563], under setting [1], the Nav1.4/Nav1.7 is recorded as 126.
On the same count and under the same terms, to `CCCC[C@@H]1NC(=O)[C@H](Cc2c[nH]c3ccccc23)NC(=O)[C@H](CCCCN)NC(=O)[C@H](CCC(N)=O)NC(=O)[C@@H](NC(=O)[C@H](Cc2ccc(O)cc2)NC(=O)[C@@H](N)CC#N)CSSC[C@@H]2NC(=O)[C@@H]3CSSC[C@@H](C(=O)N[C@@H](CCCNC(=N)N)C(=O)N[C@@H](CCCCN)C(=O)N[C@@H](CCC(=O)O)C(=O)N[C@H](C(N)=O)[C@@H](C)CC)NC(=O)[C@H](Cc4c[nH]c5ccccc45)NC(=O)[C@H](CC(C)C)NC(=O)[C@H](CCCCN)NC(=O)[C@H](CSSC[C@H](NC(=O)[C@H]([C@@H](C)O)NC(=O)[C@H](Cc4c[nH]c5ccccc45)NC1=O)C(=O)N[C@@H](CC(=O)O)C(=O)N[C@@H](CCCCNC(=O)CCOCCOCCOCCOCCOCCOCCOCCOCCOCCOCCOCCOCCN)C(=O)N[C@@H](CCCCN)C(=O)N[C@@H](CCCNC(=N)N)C(=O)N[C@@H](C)C(=O)N3)NC(=O)[C@H](CCCNC(=N)N)NC(=O)[C@H](CC(C)C)NC(=O)CNC(=O)[C@H](CCC(=O)O)NC2=O` [compound 565] belongs 75; to `CCCC[C@@H]1NC(=O)[C@H](Cc2c[nH]c3ccccc23)NC(=O)[C@H](CCCCN)NC(=O)[C@H](CCC(N)=O)NC(=O)[C@@H](NC(=O)[C@H](Cc2ccc(O)cc2)NC(=O)[C@@H](N)CC#N)CSSC[C@@H]2NC(=O)[C@@H]3CSSC[C@@H](C(=O)N[C@@H](CCCNC(=N)N)C(=O)N[C@@H](CCCCN)C(=O)N[C@@H](CCC(=O)O)C(=O)N[C@H](C(N)=O)[C@@H](C)CC)NC(=O)[C@H](Cc4c[nH]c5ccccc45)NC(=O)[C@H](CC(C)C)NC(=O)[C@H](CCCCN)NC(=O)[C@H](CSSC[C@H](NC(=O)[C@H]([C@@H](C)O)NC(=O)[C@H](Cc4c[nH]c5ccccc45)NC1=O)C(=O)N[C@@H](CC(=O)O)C(=O)N[C@@H](CO)C(=O)N[C@@H](CCCCNC(=O)CCOCCOCCOCCOCCOCCOCCOCCOCCOCCOCCOCCOCCN)C(=O)N[C@@H](CCCNC(=N)N)C(=O)N[C@@H](C)C(=O)N3)NC(=O)[C@H](CCCNC(=N)N)NC(=O)[C@H](CC(C)C)NC(=O)CNC(=O)[C@H](CCC(=O)O)NC2=O` [compound 566], 103.
`C#CC[C@H](N)C(=O)N[C@@H](Cc1ccc(O)cc1)C(=O)N[C@H]1CSSC[C@@H]2NC(=O)[C@@H]3CSSC[C@@H](C(=O)N[C@@H](CCCNC(=N)N)C(=O)N[C@@H](CCCCN)C(=O)NCC(=O)N[C@H](C(N)=O)[C@@H](C)CC)NC(=O)[C@H](Cc4c[nH]c5ccccc45)NC(=O)[C@H](CC(C)C)NC(=O)[C@H](CCCCN)NC(=O)[C@H](CSSC[C@H](NC(=O)[C@H]([C@@H](C)O)NC(=O)[C@H](Cc4c[nH]c5ccccc45)NC(=O)[C@H](CCCC)NC(=O)[C@H](Cc4c[nH]c5ccccc45)NC(=O)[C@H](CCCCN)NC(=O)[C@H](CCC(N)=O)NC1=O)C(=O)N[C@@H](CC(=O)O)C(=O)N[C@@H](CO)C(=O)N[C@@H](CCCCN)C(=O)N[C@@H](CCCNC(=N)N)C(=O)N[C@@H](C)C(=O)N3)NC(=O)[C@H](CCCNC(=N)N)NC(=O)[C@H](CC(C)C)NC(=O)CNC(=O)[C@H](CCC(=O)O)NC2=O` [compound 651]: the IC50 stood at 3.14 nM.
Turning to `C#CC[C@H](N)C(=O)N[C@@H](Cc1ccc(O)cc1)C(=O)N[C@H]1CSSC[C@@H]2NC(=O)[C@@H]3CSSC[C@@H](C(=O)N[C@@H](CCCNC(=N)N)C(=O)N[C@@H](CCCCN)C(=O)N[C@@H](Cc4c[nH]cn4)C(=O)N[C@H](C(N)=O)[C@@H](C)CC)NC(=O)[C@H](Cc4c[nH]c5ccccc45)NC(=O)[C@H](CC(C)C)NC(=O)[C@H](CCCCN)NC(=O)[C@H](CSSC[C@H](NC(=O)[C@H]([C@@H](C)O)NC(=O)[C@H](Cc4c[nH]c5ccccc45)NC(=O)[C@H](CCCC)NC(=O)[C@H](Cc4c[nH]c5ccccc45)NC(=O)[C@H](CCCCN)NC(=O)[C@H](CCC(N)=O)NC1=O)C(=O)N[C@@H](CC(=O)O)C(=O)N[C@@H](CO)C(=O)N[C@@H](CCCCN)C(=O)N[C@@H](CCCNC(=N)N)C(=O)N[C@@H](C)C(=O)N3)NC(=O)[C@H](CCCNC(=N)N)NC(=O)[C@H](CC(C)C)NC(=O)CNC(=O)[C@H](CCC(=O)O)NC2=O` [compound 652], the IC50 is 0.371 nM.
On the same count and under the same terms, with `C#CC[C@H](N)C(=O)N[C@@H](Cc1ccc(O)cc1)C(=O)N[C@H]1CSSC[C@@H]2NC(=O)[C@@H]3CSSC[C@@H](C(=O)N[C@@H](CCCNC(=N)N)C(=O)N[C@@H](CCCCN)C(=O)N[C@@H](CCCC)C(=O)N[C@H](C(N)=O)[C@@H](C)CC)NC(=O)[C@H](Cc4c[nH]c5ccccc45)NC(=O)[C@H](CC(C)C)NC(=O)[C@H](CCCCN)NC(=O)[C@H](CSSC[C@H](NC(=O)[C@H]([C@@H](C)O)NC(=O)[C@H](Cc4c[nH]c5ccccc45)NC(=O)[C@H](CCCC)NC(=O)[C@H](Cc4c[nH]c5ccccc45)NC(=O)[C@H](CCCCN)NC(=O)[C@H](CCC(N)=O)NC1=O)C(=O)N[C@@H](CC(=O)O)C(=O)N[C@@H](CO)C(=O)N[C@@H](CCCCN)C(=O)N[C@@H](CCCNC(=N)N)C(=O)N[C@@H](C)C(=O)N3)NC(=O)[C@H](CCCNC(=N)N)NC(=O)[C@H](CC(C)C)NC(=O)CNC(=O)[C@H](CCC(=O)O)NC2=O` [compound 664] the figure was 0.339 nM; with `C#CC[C@H](N)C(=O)N[C@@H](Cc1ccc(O)cc1)C(=O)N[C@H]1CSSC[C@@H]2NC(=O)[C@@H]3CSSC[C@@H](C(=O)N[C@@H](CCCNC(=N)N)C(=O)N[C@@H](CCCCN)C(=O)N[C@H](C(=O)N[C@H](C(N)=O)[C@@H](C)CC)[C@@H](C)CC)NC(=O)[C@H](Cc4c[nH]c5ccccc45)NC(=O)[C@H](CC(C)C)NC(=O)[C@H](CCCCN)NC(=O)[C@H](CSSC[C@H](NC(=O)[C@H]([C@@H](C)O)NC(=O)[C@H](Cc4c[nH]c5ccccc45)NC(=O)[C@H](CCCC)NC(=O)[C@H](Cc4c[nH]c5ccccc45)NC(=O)[C@H](CCCCN)NC(=O)[C@H](CCC(N)=O)NC1=O)C(=O)N[C@@H](CC(=O)O)C(=O)N[C@@H](CO)C(=O)N[C@@H](CCCCN)C(=O)N[C@@H](CCCNC(=N)N)C(=O)N[C@@H](C)C(=O)N3)NC(=O)[C@H](Cc1ccc(O)cc1)NC(=O)[C@H](CC(C)C)NC(=O)CNC(=O)[C@H](CCC(=O)O)NC2=O` [compound 682], 5.98 nM.
